Among the data in patent publication US11591350B2, “Modulators of cystic fibrosis transmembrane conductance regulator” (Vertex Pharmaceuticals Incorporated, priority 2019, dated 2023) are EC50 values, retold here.

Sequence of CFTR (P13569 with tags, fused parts or gaps DEL508-508): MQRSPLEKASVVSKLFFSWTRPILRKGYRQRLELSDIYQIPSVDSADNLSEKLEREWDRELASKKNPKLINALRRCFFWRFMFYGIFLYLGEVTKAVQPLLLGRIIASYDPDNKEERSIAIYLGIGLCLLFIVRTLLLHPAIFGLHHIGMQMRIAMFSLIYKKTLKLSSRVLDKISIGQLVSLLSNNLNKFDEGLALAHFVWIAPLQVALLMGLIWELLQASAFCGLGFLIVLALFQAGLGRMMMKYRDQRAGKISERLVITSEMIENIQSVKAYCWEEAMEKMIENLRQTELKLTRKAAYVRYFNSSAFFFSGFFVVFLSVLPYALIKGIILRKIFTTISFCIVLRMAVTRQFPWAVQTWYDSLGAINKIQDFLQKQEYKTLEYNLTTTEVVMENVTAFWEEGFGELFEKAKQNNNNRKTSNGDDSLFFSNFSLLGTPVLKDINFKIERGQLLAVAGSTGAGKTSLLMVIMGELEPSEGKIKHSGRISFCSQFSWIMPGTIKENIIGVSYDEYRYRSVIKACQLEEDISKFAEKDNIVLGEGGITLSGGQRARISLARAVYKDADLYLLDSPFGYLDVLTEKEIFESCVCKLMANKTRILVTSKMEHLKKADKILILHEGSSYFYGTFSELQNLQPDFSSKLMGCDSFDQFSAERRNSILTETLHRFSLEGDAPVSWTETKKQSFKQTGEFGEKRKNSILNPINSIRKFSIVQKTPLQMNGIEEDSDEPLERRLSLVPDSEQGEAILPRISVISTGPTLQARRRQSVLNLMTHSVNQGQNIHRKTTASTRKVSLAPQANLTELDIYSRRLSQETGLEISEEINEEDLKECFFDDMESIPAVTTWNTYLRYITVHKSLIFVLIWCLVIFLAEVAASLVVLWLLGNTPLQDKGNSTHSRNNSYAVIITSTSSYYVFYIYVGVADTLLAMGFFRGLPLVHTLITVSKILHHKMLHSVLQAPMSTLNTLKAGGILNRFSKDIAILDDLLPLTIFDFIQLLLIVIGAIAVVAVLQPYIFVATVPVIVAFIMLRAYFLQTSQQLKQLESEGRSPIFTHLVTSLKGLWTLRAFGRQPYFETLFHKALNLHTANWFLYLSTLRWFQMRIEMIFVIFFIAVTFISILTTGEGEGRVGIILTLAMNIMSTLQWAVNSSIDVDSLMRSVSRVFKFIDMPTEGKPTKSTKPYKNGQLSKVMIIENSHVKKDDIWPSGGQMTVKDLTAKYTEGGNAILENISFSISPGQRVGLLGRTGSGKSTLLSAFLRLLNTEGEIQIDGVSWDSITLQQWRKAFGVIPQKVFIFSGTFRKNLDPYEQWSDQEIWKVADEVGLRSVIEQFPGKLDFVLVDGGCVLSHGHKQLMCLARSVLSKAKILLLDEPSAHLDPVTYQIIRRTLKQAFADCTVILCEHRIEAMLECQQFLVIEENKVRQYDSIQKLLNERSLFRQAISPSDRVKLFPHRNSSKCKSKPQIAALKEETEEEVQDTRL

The assay concerns the target CFTR (Homo sapiens, UniProt P13569). The experiment in a line: Membrane potential dye assay (FLIPR Tetra) of CFTR-mediated chloride transport in enteroid cells. The class given is cell-based. The note with it: human intestinal epithelial enteroid cells; test compound 18-24 hours; acute 10 μM forskolin and 300 nM Compound III. The text has this: Enteroid Cell Harvesting and Seeding
Membrane Potential Dye Assay
Broadly, the EC50 is the concentration giving half of the maximal effect. High values mean weaker potency, low ones greater potency. On to `CC1(C)C[C@@H]2CCCNc3cccc(n3)S(=O)(=O)NC(=O)c3ccc(-n4ccc(OCC[Si](C)(C)C)n4)nc3N1C2` [Compound (1-7), (14S)-12,12-dimethyl-8-{3-[2-(trimethylsilyl)ethoxy]-1H-pyrazol-1-yl}-2λ^6-thia-3,9,11,18,23-pentaazatetracyclo[17.3.1.111,14.05,10]tetracosa-1(22),5(10),6,8,19(23),20-hexaene-2,2,4-trione], for which the EC50 was < 1000 nM.

Regarding `CC1(C)C[C@@H]2CCCNc3cccc(n3)S(=O)(=O)NC(=O)c3ccc(-n4ccc(OCCC[Si](C)(C)C)n4)nc3N1C2` [Compound (1-6), (14S)-12,12-dimethyl-8-{3-[3-(trimethylsilyl)Propoxy]-1H-pyrazol-1-yl}-2λ^6-thia-3,9,11,18,23-pentaazatetracyclo[17.3.1.111,14.05,10]tetracosa-1(22),5(10),6,8,19(23),20-hexaene-2,2,4-trione], the EC50 is < 1000 nM.

Turning to `CC1(C)C[C@@H]2CCCNc3cccc(n3)S(=O)(=O)NC(=O)c3ccc(-n4ccc(OC[Si](C)(C)C(C)(C)C)n4)nc3N1C2` [Compound (1-2), (14S)-8-{3-[(tert-butyldimethylsilyl)methoxy]-1H-pyrazol-1-yl}-12,12-dimethyl-2λ^6-thia-3,9,11,18,23-pentaazatetracyclo[17.3.1.111,14.05,10]tetracosa-1(23),5(10),6,8,19,21-hexaene-2,2,4-trione], the half-maximal effective concentration (EC50) was < 1000 nM.

With `CC1(C)C[C@@H]2CCCNc3cccc(n3)S(=O)(=O)NC(=O)c3ccc(-n4ccc(OC[Si](C)(C)C5(C(F)(F)F)CC5)n4)nc3N1C2` [Compound (1-1), (14S)-8-[3-({dimethyl[1-(trifluoromethyl)cyclopropyl]silyl}methoxy)-1H-pyrazol-1-yl]-12,12-dimethyl-2λ^6-thia-3,9,11,18,23-pentaazatetracyclo[17.3.1.111,14.05,10]tetracosa-1(22),5(10),6,8,19(23),20-hexaene-2,2,4-trione], the EC50 is < 1000 nM.

With `CC1(C)C[C@@H]2CCCNc3cccc(n3)S(=O)(=O)NC(=O)c3ccc(-n4ccc(OCCC5([Si](C)(C)C)CC5)n4)nc3N1C2` [(1-3)], the EC50 is < 1000 nM.

Take `CC(C)(C)CC[Si](C)(C)c1ccn(-c2ccc3c(n2)N2C[C@@H](CCCNc4cccc(n4)S(=O)(=O)NC3=O)CC2(C)C)n1` [Compound (1-4), (14S)-8-{3-[(3,3-dimethylbutyl)dimethylsilyl]-1H-pyrazol-1-yl}-12,12-dimethyl-2λ^6-thia-3,9,11,18,23-pentaazatetracyclo[17.3.1.111,14.05,10]tetracosa-1(23),5(10),6,8,19,21-hexaene-2,2,4-trione]: the EC50 was < 1000 nM.

Regarding `CC1(C)C[C@@H]2CCCNc3cccc(n3)S(=O)(=O)NC(=O)c3ccc(-n4ccc(OC[Si](C)(C)C)n4)nc3N1C2` [Compound (1-8), (14S)-12,12-dimethyl-8-{3-[(trimethylsilyl)methoxy]-1H-pyrazol-1-yl}-2λ^6-thia-3,9,11,18,23-pentaazatetracyclo[17.3.1.111,14.05,10]tetracosa-1(22),5(10),6,8,19(23),20-hexaene-2,2,4-trione], the EC50 is < 1000 nM.

As for `CC1(C)C[C@@H]2CCCNc3cccc(n3)S(=O)(=O)NC(=O)c3ccc(-n4ccc(O[CH2][Ge]([CH3])([CH3])[CH3])n4)nc3N1C2` [Compound (2-1), (14S)-12,12-dimethyl-8-{3-[(trimethylgermyl)methoxy]-1H-pyrazol-1-yl}-2λ^6-thia-3,9,11,18,23-pentaazatetracyclo[17.3.1.111,14.05,10]tetracosa-1(23),5(10),6,8,19,21-hexaene-2,2,4-trione], the EC50 is < 1000 nM.
